pEC50, pKd: −log10 of the molar value. Where a SMILES comes first, the peptide text is derived from it.
Columns and labels:
[1] = molecular target: Wnt-responsive promoter (TCF/LEF); experiment: Wnt-dependent luciferase reporter assay; format: cell-based, murine
Method in brief: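 Murine 3T3 fibroblasts carrying a TCF/LEF-driven luciferase reporter, stimulated with Wnt3a in the presence of increasing peptide concentrations or vehicle. Luminescence inhibition gave EC50 values in uM.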

β-catenin = molecular target: T1, β-catenin (Homo sapiens, UniProt P35222); experiment: KD50 measurement using competitive fluorescence polarization (FP) with labelled TCF4; format: binding; conditions: fluorescence polarization, β-catenin; for pKd: read-out: β-Cat FP KD
T1 sequence (P35222 1-781): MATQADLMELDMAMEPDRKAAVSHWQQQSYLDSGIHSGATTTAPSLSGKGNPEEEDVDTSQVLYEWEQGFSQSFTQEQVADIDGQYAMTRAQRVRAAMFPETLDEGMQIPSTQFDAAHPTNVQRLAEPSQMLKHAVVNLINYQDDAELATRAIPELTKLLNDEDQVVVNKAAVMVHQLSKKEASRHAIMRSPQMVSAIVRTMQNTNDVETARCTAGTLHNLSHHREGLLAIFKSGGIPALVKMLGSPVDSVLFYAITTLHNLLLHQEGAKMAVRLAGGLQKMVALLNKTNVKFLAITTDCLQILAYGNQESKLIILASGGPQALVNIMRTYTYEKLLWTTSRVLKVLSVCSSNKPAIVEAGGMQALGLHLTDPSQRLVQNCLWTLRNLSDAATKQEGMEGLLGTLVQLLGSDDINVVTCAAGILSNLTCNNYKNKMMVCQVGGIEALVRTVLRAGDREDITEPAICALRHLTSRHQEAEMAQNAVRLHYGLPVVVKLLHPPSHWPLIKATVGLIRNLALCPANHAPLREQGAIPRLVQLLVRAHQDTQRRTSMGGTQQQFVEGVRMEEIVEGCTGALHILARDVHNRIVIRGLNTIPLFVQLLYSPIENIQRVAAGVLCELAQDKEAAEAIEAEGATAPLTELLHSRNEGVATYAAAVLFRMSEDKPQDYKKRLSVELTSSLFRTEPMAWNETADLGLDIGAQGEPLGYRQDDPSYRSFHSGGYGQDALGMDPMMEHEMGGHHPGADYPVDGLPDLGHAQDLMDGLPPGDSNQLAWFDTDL
Method in brief: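 Competitive FP in which unlabelled inhibitor (10 nM to 30 uM dilution series) displaces 5 nM labelled TCF4 from 100 nM β-catenin, room temperature. Read-out ex 470 nm, em 520 nm; experiment repeated three times.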

[2] = % Viability non-Wnt responsive cells

| Compound | pEC50 [1] | β-Cat FP Hill slope (β-catenin) | pKd (β-catenin) | viability [2] [%] |
| --- | --- | --- | --- | --- |
| CC[C@H](C)[C@H](NC(=O)[C@H](CC(C)C)NC(=O)[C@H](Cc1ccccc1)NC(=O)[C@H](C)N(C)C(=O)[C@H](CCSC)NC(=O)[C@H](CCCNC(=N)N)NC(=O)[C@H](CO)NC(=O)[C@@H](N)CCSC)C(=O)N[C@@H](CO)C(=O)N[C@@H](Cc1ccccc1)C(=O)N[C@@H](Cc1c[nH]c2ccccc12)C(=O)NCC(=O)O [compound 50] (HELM PEPTIDE1{M.S.R.M.[meA].F.L.I.S.F.W.G}$$$$V2.0) | < 4.52 | 0.76 | 5.00 to 6.00 | 96.7 |
| CC[C@H](C)[C@H](NC(=O)[C@@H]1CCCN1C(=O)[C@H](Cc1ccccc1)NC(=O)[C@H](Cc1c[nH]c2ccccc12)NC(=O)[C@H](CCSC)NC(=O)[C@H](CCCNC(=N)N)NC(=O)[C@H](CO)NC(=O)[C@@H](N)CCSC)C(=O)N[C@@H](CO)C(=O)N[C@@H](Cc1ccccc1)C(=O)N[C@@H](Cc1c[nH]c2ccccc12)C(=O)NCC(=O)O [compound 65] (H-MSRMWFPISFWG-OH) | < 4.52 | 0.7 | 5.00 to 6.00 | 105 |
| CC[C@H](C)[C@H](NC(=O)[C@H](CC(C)C)NC(=O)[C@H](Cc1ccccc1)NC(=O)[C@H](Cc1c[nH]c2ccccc12)NC(=O)[C@H](CCSC)NC(=O)[C@H](CCCNC(=N)N)NC(=O)CNC(=O)[C@@H](N)CCSC)C(=O)N[C@@H](CO)C(=O)N[C@@H](Cc1ccccc1)C(=O)N[C@@H](Cc1c[nH]c2ccccc12)C(=O)NCC(=O)O [compound 67] (H-MGRMWFLISFWG-OH) | > 5.12 | 0.99 | 5.00 to 6.00 | 101 |
| CSCC[C@H](NC(=O)[C@H](CCCNC(=N)N)NC(=O)[C@H](CO)NC(=O)[C@@H](N)CCSC)C(=O)N[C@@H](Cc1c[nH]c2ccccc12)C(=O)N[C@@H](Cc1ccccc1)C(=O)N[C@@H](CC(C)C)C(=O)N[C@H](C(=O)N[C@@H](CO)C(=O)N[C@@H](Cc1ccccc1)C(=O)N[C@@H](Cc1c[nH]c2ccccc12)C(=O)NCC(=O)O)C(C)C [compound 56] (H-MSRMWFLVSFWG-OH) | 4.82 to 5.12 |  | < 4.52 | 100 |
| CC[C@H](C)[C@H](NC(=O)[C@H](CC(C)C)NC(=O)[C@H](Cc1ccccc1)NC(=O)[C@H](Cc1c[nH]c2ccccc12)NC(=O)[C@H](CCSC)NC(C)=O)C(=O)N[C@@H](CO)C(=O)N[C@@H](Cc1ccccc1)C(=O)N[C@@H](Cc1c[nH]c2ccccc12)C(=O)NCC(=O)O [compound 219] (Ac-MWFLISFWG-OH) | > 5.12 | 0.86 | 6.00 to 6.40 | 90.6 |
| CC[C@H](C)[C@H](NC(=O)[C@H](CC(C)C)NC(=O)[C@H](Cc1ccccc1)NC(=O)[C@H](Cc1c[nH]c2ccccc12)NC(=O)[C@H](CCCCN)NC(=O)[C@H](CCCNC(=N)N)NC(=O)[C@H](CO)NC(=O)[C@@H](N)Cc1c[nH]c2ccccc12)C(=O)N[C@@H](CO)C(=O)N[C@@H](Cc1ccccc1)C(=O)N[C@@H](Cc1c[nH]c2ccccc12)C(N)=O [compound 90] (H-WSRKWFLISFW-NH2) | < 4.52 |  | < 4.52 | 83.3 |
| CC[C@H](C)[C@H](NC(=O)[C@H](CC(C)C)NC(=O)[C@@H](NC(=O)[C@H](Cc1c[nH]c2ccccc12)NC(=O)[C@H](CCSC)NC(=O)[C@@H](N)CCCCN)[C@@H](C)CC)C(=O)N[C@@H](CS)C(=O)N[C@@H](Cc1ccccc1)C(=O)N[C@@H](Cc1c[nH]c2ccccc12)C(=O)NCC(=O)O [compound 113] (H-KMWILICFWG-OH) | < 4.52 | 0.7 | 5.00 to 6.00 | 102 |
| CC[C@H](C)[C@H](NC(=O)[C@H](CC(C)C)NC(=O)[C@H](Cc1ccccc1)NC(=O)[C@@H](N)Cc1c[nH]c2ccccc12)C(=O)N[C@@H](CO)C(=O)N[C@@H](Cc1ccc(O)cc1)C(=O)N[C@@H](Cc1c[nH]c2ccccc12)C(=O)O [compound 109] (H-WFLISYW-OH) | 4.82 to 5.12 | 3 | 5.00 to 6.00 | 103 |

From patent US12441768B2, “Compositions and methods for treating endometriosis” (EndoMet Biosciences, Inc., priority 2018, dated 2025)
